The results in this text go back to PubChem BioAssay (NCI).

Each structure is given as a SMILES string. Values joined by “and” are separate entries in the source; they are usually repeats but may differ in a detail not shown here. Identical values can stand only once.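 Test compounds were applied to cells in 96-well plates for 48 hours at 5 doses. Here, GI50 denotes the concentration required for 50% inhibition of growth. TGI denotes the concentration required for complete inhibition of growth.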

Among the test systems are EKVX NSCLC; HOP-62 NSCLC; MDA-MB-435; MOLT-4 leukemia; NCI-H23 lung; NCI-H522 lung; SR leukemia; SW-620 colon.
Common to all, as to assay: NCI anticancer screen, dose series, 48 h

As for `Cc1ccc(C)c(N2C(=O)C(=O)c3c(C)ccc(C)c32)c1`, the TGI in the experiment with EKVX NSCLC was over 100 µM; in the experiment with HOP-62 NSCLC it was over 100 µM; with MDA-MB-435, 46.4 µM; in the experiment with MOLT-4 leukemia it was 48.8 µM; in the experiment with NCI-H23 lung, 70 µM; with NCI-H522 lung, 38.6 µM. Moreover, the TGI with SR leukemia is 37.7 µM; with SW-620 colon, over 100 µM.
Turning to `Cc1ccc2nc(CC(=O)c3ccc4ccccc4c3)c(=O)[nH]c2c1`, the TGI in the experiment with EKVX NSCLC, in the experiment on HOP-62 NSCLC, in the experiment on MDA-MB-435, in the experiment on MOLT-4 leukemia, in the experiment on NCI-H23 lung and with NCI-H522 lung was over 100 µM in each case. Also, the TGI with SR leukemia and in the experiment with SW-620 colon was over 100 µM in each case.
For `COc1ccc(CCN2COc3ccc4ccc(=O)oc4c3C2)cc1OC`, the TGI with EKVX NSCLC, in the experiment with HOP-62 NSCLC, in the experiment on MDA-MB-435, with MOLT-4 leukemia, in the experiment with NCI-H23 lung and in the experiment on NCI-H522 lung was over 100 µM throughout. Besides, the TGI in the experiment with SR leukemia came out at 50.5 µM; in the experiment with SW-620 colon, 69 µM.
For `CC#CC(=O)N[C@H]1CCCN(c2c(F)cc(C(N)=O)c3[nH]c(C)c(C)c23)C1`, the GI50 is 18.3 µM in the experiment on EKVX NSCLC; 24.9 µM with HOP-62 NSCLC; 16.6 µM with MDA-MB-435; 18.8 µM in the experiment on MOLT-4 leukemia; 19.5 µM in the experiment with NCI-H23 lung; 14.4 µM in the experiment with NCI-H522 lung. Moreover, the GI50 in the experiment on SR leukemia is 17.6 µM; in the experiment with SW-620 colon, 19.8 µM. Further, the TGI in the experiment on EKVX NSCLC is 45.9 µM; in the experiment with HOP-62 NSCLC it was over 100 µM; in the experiment with MDA-MB-435, 34 µM; in the experiment on MOLT-4 leukemia, 93.6 µM; in the experiment with NCI-H23 lung, 41.8 µM; in the experiment on NCI-H522 lung, 34.1 µM. The TGI was over 100 µM in the experiment on SR leukemia and 39 µM with SW-620 colon.
With `CN1CCN(CCCOc2ccc3nc(Nc4ccc(C(F)(F)F)c(Cl)c4)ccc3c2)CC1`, the GI50 in the experiment on EKVX NSCLC was 1.74 µM; in the experiment on HOP-62 NSCLC it was 1.63 µM; in the experiment on MDA-MB-435 it was 1.63 µM; in the experiment with MOLT-4 leukemia, 1.63 µM; in the experiment with NCI-H23 lung it was 1.47 µM; in the experiment on NCI-H522 lung, 2.02 µM. In addition, the GI50 with SR leukemia was 1.17 µM; in the experiment on SW-620 colon, 1.71 µM. Moreover, the TGI was 3.63 µM in the experiment with EKVX NSCLC; 3.18 µM in the experiment with HOP-62 NSCLC; 3.16 µM in the experiment on MDA-MB-435; 3.91 µM with MOLT-4 leukemia; 3 µM in the experiment with NCI-H23 lung; 3.74 µM with NCI-H522 lung. For the same compound, the figures for the TGI in the experiment with SR leukemia and in the experiment with SW-620 colon were 4.01 µM and 3.33 µM, respectively.
As for `C(=C\c1nc2ccccc2s1)/c1ccc(N2CCOCC2)s1`, the GI50 in the experiment on EKVX NSCLC is 30.1 µM; with HOP-62 NSCLC it was 45.5 µM; in the experiment on MDA-MB-435, over 100 µM; with MOLT-4 leukemia, over 100 µM; with NCI-H23 lung it was 80.9 µM; in the experiment on NCI-H522 lung, 49.2 µM. Moreover, the values for the GI50 with SR leukemia and in the experiment on SW-620 colon were 58.9 µM and over 100 µM, respectively. Besides, the TGI with EKVX NSCLC, in the experiment with HOP-62 NSCLC, in the experiment on MDA-MB-435, with MOLT-4 leukemia, in the experiment with NCI-H23 lung and in the experiment on NCI-H522 lung was over 100 µM in each case. In addition, the TGI in the experiment with SR leukemia and with SW-620 colon was over 100 µM throughout.
Take `Cc1cccc2c1NC(=O)C2(c1ccc(O)cc1)c1ccc(O)cc1`: the GI50 with EKVX NSCLC was 16.4 µM; in the experiment on HOP-62 NSCLC, 14.8 µM; in the experiment with MDA-MB-435, 15.4 µM; in the experiment with MOLT-4 leukemia it was 11.8 µM; in the experiment with NCI-H23 lung, 0.0459 µM; in the experiment with NCI-H522 lung, 12.6 µM. Besides, the GI50 in the experiment with SR leukemia is 14 µM; with SW-620 colon, 20.8 µM. Moreover, the TGI with EKVX NSCLC amounted to 98.9 µM; in the experiment with HOP-62 NSCLC, 38.3 µM; in the experiment on MDA-MB-435 it was 34.9 µM; in the experiment on MOLT-4 leukemia, 75 µM; with NCI-H23 lung it was 31.8 µM; in the experiment on NCI-H522 lung, 33.4 µM. Moreover, the TGI in the experiment with SR leukemia is 45.4 µM; in the experiment on SW-620 colon, 69.8 µM.
As for `Cc1nc2sc(C(=O)Nc3cccc(Cl)c3C)c(N)c2cc1C(=O)c1ccccc1`, the GI50 in the experiment on EKVX NSCLC was 0.292 µM; with HOP-62 NSCLC, 0.296 µM; in the experiment with MDA-MB-435, 0.0988 µM; with MOLT-4 leukemia, 0.254 µM; in the experiment on NCI-H23 lung it was 1.14 µM; with NCI-H522 lung it was 0.205 µM. Moreover, the GI50 was 0.131 µM with SR leukemia and 0.209 µM in the experiment with SW-620 colon. Further, the TGI in the experiment with EKVX NSCLC is over 50 µM; in the experiment on HOP-62 NSCLC it was over 50 µM; with MDA-MB-435, 0.257 µM; in the experiment with MOLT-4 leukemia, over 50 µM; with NCI-H23 lung, over 50 µM; with SR leukemia it was 16.9 µM. For the same compound, the TGI in the experiment with SW-620 colon is over 50 µM.
On to `CCCN(CCC)c1ccc(/C=N/NC(=O)c2cccnc2)cc1`, for which the GI50 with EKVX NSCLC is 26.8 µM; in the experiment with HOP-62 NSCLC, 37.9 µM; in the experiment on MDA-MB-435, 3.63 µM; in the experiment on MOLT-4 leukemia it was 31 µM; with NCI-H23 lung, 36.1 µM; in the experiment on NCI-H522 lung it was 16.6 µM. Moreover, the GI50 in the experiment with SR leukemia was 6.82 µM; with SW-620 colon it was 18.1 µM. Further, the TGI is over 100 µM with EKVX NSCLC; over 100 µM in the experiment on HOP-62 NSCLC; over 100 µM in the experiment with MDA-MB-435; over 100 µM with MOLT-4 leukemia; over 100 µM with NCI-H23 lung; 46.8 µM with NCI-H522 lung. Further, the TGI in the experiment with SR leukemia and with SW-620 colon was over 100 µM throughout.
Take `COc1cc(C(=O)Nc2cc(O)c(C/C=C(\C)CCC=C(C)C)c(O)c2)cc2c1O[C@]1(C)CC[C@@H](O)C(C)(C)[C@H]1C2`: the GI50 with EKVX NSCLC is 1.12 µM and 1.16 µM; with HOP-62 NSCLC, 0.0537 µM and 0.176 µM; in the experiment with MDA-MB-435, 0.325 µM and 1.26 µM; with MOLT-4 leukemia it was 0.0298 µM; in the experiment with NCI-H23 lung, 1.61 µM and 2.09 µM; in the experiment with NCI-H522 lung, 7 µM and 1.29 µM. Further, the GI50 in the experiment on SR leukemia was 0.0382 µM and 0.0219 µM; in the experiment on SW-620 colon, 0.0899 µM and 0.159 µM. For the same compound, the TGI in the experiment with EKVX NSCLC stood at 14.8 µM; with HOP-62 NSCLC it was 6.97 µM; with MDA-MB-435 it was 13 µM; in the experiment on MOLT-4 leukemia, 1.54 µM; in the experiment with NCI-H23 lung, 19.7 µM; in the experiment with NCI-H522 lung it was 11.6 µM. The TGI with SR leukemia is 7.2 µM and 5.93 µM; in the experiment with SW-620 colon it was 1.84 µM and 15.6 µM.
As for `COc1ccc(OC)c(-c2cc(C(=O)O)c3cc4ccccc4cc3n2)c1`, the TGI with EKVX NSCLC, with HOP-62 NSCLC, in the experiment with MDA-MB-435, in the experiment with MOLT-4 leukemia, in the experiment on NCI-H23 lung and in the experiment with NCI-H522 lung was over 100 µM in each case. In addition, the TGI in the experiment with SR leukemia and in the experiment on SW-620 colon was over 100 µM in each case.
